Legend:
Format in all cases: cell-based
[1] = tested on: CD8+ T-lymphocytes; assay: Human primary leucocyte proliferation: CD8+ T-lymphocytes; settings: 3 μM, 5 days
Description: (§1) Effects on cell viability were assessed using flow cytometry. Flow cytometry is a laser-based, biophysical technology employed in cell counting, cell sorting, and biomarker detection, by suspending cells in a stream of fluid and passing them by an electronic detection apparatus. It allows simultaneous multi-parametric analysis of the physical and chemical characteristics of up to thousands of particles per second. The sorting of cells using flow cytometry requires the use of specific cell markers. To quantify cell numbers, counting beads are used as an internal standard. Counting beads are a calibrated suspension of microbeads which are added to a known volume of sample so the sample volume per bead is known. […] In addition, for B- and T-lymphocytes, cell proliferation was measured using a dye known as Cell Proliferation Dye (eFluor® 450). eFluor® 450 is an organic dye which can be conjugated to cell-specific markers. […]
(§2) PBMCs (peripheral blood mononuclear cells) were collected from healthy donors (all female) and isolated by centrifugation on a layer of Ficoll Paque (GE Healthcare, UK). […] Following incubation, the cells were stained with either anti-human CD8 or CD4 before being analysed on a flow cytometer. […]
(§3) The average results (n=3) for the reference compound (ABD735) were expressed as a fold change versus the average control value. […]

[2] = tested on: B-lymphocytes; assay: Human primary leucocyte proliferation: B-lymphocytes; settings: 3 μM
Description: as §1
as §2, with “with” for “with either”, “CD19, a marker of B-lymphocytes,” for “CD8 or CD4”
as §3

[3] = tested on: CD8+ T-lymphocytes; assay: Human primary leucocyte viability: CD8+ T-lymphocytes; settings: 3 μM, 48 hours
Description: (§4) The effects of the reference compound (ABD735) on the viability of neutrophils, monocytes, CD4+ and CD8+ T-cells and B-lymphocytes was assessed under both resting and stimulated conditions. Resting conditions were used to assess likely effects on normal cells found in human blood, and stimulated conditions were used to assess the effects of the compound under disease conditions.
as §1, with “standard.” for “standard. Counting beads are a calibrated suspension of microbeads which are added to a known volume of sample so the sample volume per bead is known.”
as §3

[4] = tested on: B-lymphocytes; assay: Human primary leucocyte viability: B-lymphocytes; settings: 3 μM
Description: as §4
as §1, with “standard.” for “standard. Counting beads are a calibrated suspension of microbeads which are added to a known volume of sample so the sample volume per bead is known.”
as §3

With `Cc1cc(S(=O)(=O)N[C@H]2CC[C@H](O)CC2)ccc1-c1ccc(F)cc1F` [ABD735] the “Fold change in proliferation” value ([1]; no stimulation) was 0.7, the “Fold change in proliferation” value ([1]; phytohaemagglutinin) was 0.3 and the “Fold change in proliferation” value ([2]; SAC/IL-2, 5 days) was 0.6. For the same molecule, the “Fold change in proliferation” value ([2]; no stimulation, 5 days) was 0.9, the “Fold change in viability” value ([3]; no stimulation) was 0.8 and the “Fold change in viability” value ([3]; phytohaemagglutinin) was 0.7. For the same molecule, the “Fold change in viability” value ([4]; SAC/IL-2, 48 hours) was 1.1 and the “Fold change in viability” value ([4]; no stimulation, 48 hours) was 0.9.

— patent publication US9624167B2, “N-(4-hydroxy-4-methyl-cyclohexyl)-4-phenyl-benzenesulfonamides and N-(4-hydroxy-4-methyl-cyclohexyl)-4-(2-pyridyl)benzenesulfonamides and their therapeutic use” (PIMCO 2664 LIMITED, priority 2013, dated 2017)
